Common to all, as to experiment: inhibition of tumour cell growth, NCI panel, 48 h
Assay [1] has as its system BT-549 breast.
The test system of assay [2] is K-562 leukemia.
For assay [3], the system named is TK-10 renal.
Assay [4] concerns UACC-62 melanoma.
The subject of assay [5] is HOP-62 NSCLC.
Assay [6] relates to NCI-H522 lung.
The subject of assay [7] is CCRF-CEM leukemia.
The test system of assay [8] is SF-539 CNS.
Assay [9] deals with NCI/ADR-RES ovarian.
Assay [10] has as its system NCI-H460 lung.

Molecules are shown by their SMILES.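 The compound was tested at five concentrations on cells cultured in 96-well plates, with a 48-hour exposure period. GI50 marks 50% less growth. TGI is the concentration that stops growth completely.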

As to `COc1cc(-c2ccc3cc(OC)c(OC)c(OC)c3c2)cc(OC)c1OC`, the GI50 in assay [1] is 30.1 µM; in assay [2], 5.07 µM; in assay [3], 27.9 µM; in [4], 29.6 µM; in assay [5] it was 16.1 µM; in assay [6], 9.54 µM. The GI50 in [7] is above 100 µM; in [8], 23.6 µM; in assay [9] it was 7.91 µM. For the same molecule, the TGI was above 100 µM in assay [1]; above 100 µM in assay [2]; 84.3 µM in [3]; above 100 µM in assay [4]; 75.4 µM in assay [5]; above 100 µM in assay [6]. In addition, the TGI in [7], in assay [8] and in [9] was above 100 µM in each case.
For the molecule `O=C(CCCSc1nc(-c2ccccc2)cc(-c2ccccc2)n1)NO`, the GI50 in assay [1] is 2.66 µM; in assay [2], 0.983 µM; in assay [3] it was 0.669 µM; in assay [4] it was 1.32 µM; in assay [5], 0.671 µM; in [6], 1.86 µM. The GI50 was 0.488 µM in assay [10], 0.368 µM in assay [7], 1.92 µM in [8] and 0.305 µM in assay [9]. For the same molecule, the TGI was determined as 17 µM in [1]; 18.9 µM in assay [2]; 19.1 µM in assay [3]; 3.21 µM in [4]; 4.4 µM in assay [5]; 9.51 µM in [6]. For the same molecule, the TGI turned out to be 11.2 µM in assay [10], 10.6 µM in assay [7], 7.09 µM in [8] and 10.5 µM in assay [9].
As to `COC[C@H]1Cn2cc(-c3nc(Nc4ccnn4C)ncc3C)nc2C(=O)N1Cc1ccc(F)c(F)c1`, the GI50 is 48.9 µM in assay [1]; 5.85 µM in assay [2]; 5.5 µM in [3]; 0.0228 µM in assay [4]; 1.15 µM in [5]; 12.3 µM in assay [10]. In addition, the GI50 in assay [7] is 29.3 µM; in [8], 27.1 µM; in assay [9] it was above 100 µM. Moreover, the TGI in [1], in assay [2], in assay [3], in assay [4], in assay [5] and in [6] was above 100 µM in each case. In addition, the TGI in assay [10], in assay [7], in assay [8] and in [9] was above 100 µM each time.
As to `Oc1[nH]c2ccccc2c1N=Nc1nc(-c2ccc(Br)cc2)cs1`, the TGI in [1] is 45.6 µM; in [3] it was 61.2 µM; in [4] it was 63.2 µM; in [5] it was 28.6 µM; in [6], above 100 µM; in assay [10], 65.8 µM. The figures for the TGI in [7], in assay [8] and in assay [9] were 61.8 µM, 34.3 µM and 44.1 µM, respectively.
For the molecule `Nc1c(C(=O)Nc2cccc(C(F)(F)F)c2)sc2nc3c(cc12)CCCCC3`, the GI50 was 1.7 µM in assay [1]; 5.42 µM in assay [2]; 1.83 µM in assay [3]; 2.69 µM in assay [4]; 2.52 µM in assay [6]; 2.61 µM in [10]. Further, the GI50 in assay [7] was 5.56 µM; in assay [8], 1.94 µM; in assay [9], 3.17 µM. For the same molecule, the TGI in [1] came out at 6.33 µM; in assay [2] it was 29.7 µM; in assay [3] it was 4.47 µM; in assay [4], 16.7 µM; in [6], 17.7 µM; in [10], 11.4 µM. In addition, the TGI is above 100 µM in [7], 4.48 µM in assay [8] and 22.9 µM in [9].
Regarding `O=C(Oc1ccc(Cl)cc1)c1ccccc1Nc1ccnc(C(F)(F)F)c1`, the GI50 in assay [1] is 14.9 µM; in assay [2], 3.65 µM; in assay [3] it was 17.9 µM; in [4] it was 2.61 µM; in assay [6], 4.22 µM; in [10], 10.5 µM. In addition, the GI50 is 4.94 µM in assay [7], 15 µM in [8] and 16.2 µM in assay [9]. Also, the TGI in assay [1] was found to be 41.2 µM; in assay [2], 87.8 µM; in assay [3], 48.9 µM; in assay [4] it was 8.44 µM; in assay [6], 52.2 µM; in assay [10], 35.4 µM. Besides, the TGI in assay [7] was determined as 52.8 µM; in [8] it was 32.7 µM; in [9], 49.5 µM.
With `Nc1ccc(C2=NNC(=O)Cc3cc4c(cc32)OCCO4)cc1Cl`, the GI50 in [1] was 5.99 µM; in assay [3], 18.9 µM; in assay [4], 4.42 µM; in [5] it was 5.12 µM; in [6] it was 2.02 µM; in assay [10], 1.94 µM. In addition, the GI50 is 3.47 µM in [7], 4.15 µM in assay [8] and 1.3 µM in assay [9]. Moreover, the TGI was above 50 µM in [1]; above 50 µM in assay [3]; above 50 µM in assay [4]; above 50 µM in [5]; 23.5 µM in assay [6]; above 50 µM in assay [10]. The TGI in assay [7] is above 50 µM; in [8] it was 16.8 µM; in assay [9], 7.32 µM.
As for `Cc1nnc(NC(=O)c2nc(S(=O)(=O)Cc3ccc(F)cc3)ncc2Cl)s1`, the GI50 in [1] is 2.3 µM; in assay [2], 1.77 µM; in assay [4] it was 1.61 µM; in assay [5], 19.8 µM; in assay [6], 0.729 µM; in assay [10] it was 17.4 µM. Also, the figures for the GI50 in [7], in assay [8] and in assay [9] were 1.52 µM, 4.27 µM and 14.2 µM, respectively. Moreover, the TGI came out at 5.25 µM in assay [1]; 4.52 µM in [2]; 3.01 µM in assay [4]; 39.3 µM in assay [5]; 2.46 µM in assay [6]; 35.1 µM in [10]. Also, the values for the TGI in assay [7], in assay [8] and in assay [9] were 3.65 µM, 15.4 µM and 50.1 µM, respectively.
Take `O=S(=O)(c1ccccc1)N1CCN(S(=O)(=O)c2ccccc2)c2ccccc21`: the TGI in [1], in [2], in [3], in assay [4], in assay [5] and in assay [6] was above 100 µM each time. In addition, the TGI in assay [10], in [8] and in [9] was above 100 µM throughout.

These data come from PubChem BioAssay (NCI).
